Test results: patent US20210369677A1, “SMALL MOLECULE ACTIVATORS OF POLYCYSTIN-2 (PKD2) AND USES THEREOF” (Northwestern University, priority 2020, published 2021)

Biological target: T1, polycystin-2 (Homo sapiens, UniProt Q13563)
T1 construct: expressed in transfected cells
T1 sequence (Q13563 1-968): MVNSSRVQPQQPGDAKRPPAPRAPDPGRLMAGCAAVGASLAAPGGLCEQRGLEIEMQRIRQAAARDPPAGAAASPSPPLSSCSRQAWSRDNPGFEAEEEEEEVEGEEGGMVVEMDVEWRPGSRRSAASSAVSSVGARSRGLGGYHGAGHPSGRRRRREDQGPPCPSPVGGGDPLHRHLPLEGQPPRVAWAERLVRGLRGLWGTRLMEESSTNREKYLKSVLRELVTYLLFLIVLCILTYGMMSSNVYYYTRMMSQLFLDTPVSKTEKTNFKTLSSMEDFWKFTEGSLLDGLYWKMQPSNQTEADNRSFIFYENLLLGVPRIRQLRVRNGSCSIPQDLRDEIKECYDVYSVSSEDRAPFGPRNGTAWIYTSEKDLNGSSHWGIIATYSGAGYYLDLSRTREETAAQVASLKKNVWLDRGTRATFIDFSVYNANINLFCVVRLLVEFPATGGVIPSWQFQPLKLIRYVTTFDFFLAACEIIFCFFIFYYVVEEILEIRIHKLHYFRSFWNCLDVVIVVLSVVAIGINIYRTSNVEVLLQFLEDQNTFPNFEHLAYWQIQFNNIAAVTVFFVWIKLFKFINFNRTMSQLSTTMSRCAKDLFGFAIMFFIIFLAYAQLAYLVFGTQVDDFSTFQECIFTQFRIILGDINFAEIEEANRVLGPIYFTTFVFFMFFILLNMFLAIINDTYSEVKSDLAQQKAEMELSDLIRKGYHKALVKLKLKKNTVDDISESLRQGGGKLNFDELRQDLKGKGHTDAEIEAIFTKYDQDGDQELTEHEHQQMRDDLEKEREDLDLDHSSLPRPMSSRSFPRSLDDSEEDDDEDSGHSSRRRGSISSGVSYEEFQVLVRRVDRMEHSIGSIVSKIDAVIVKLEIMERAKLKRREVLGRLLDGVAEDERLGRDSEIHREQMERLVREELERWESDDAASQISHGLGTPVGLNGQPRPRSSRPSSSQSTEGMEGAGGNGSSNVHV
Test: Inside-out cilia patch of HEK cells, voltage dependent channel opening at low and high intraciliary Ca2+
Assay type: cell-based
Conditions: from low (100 nM) to high (100 μM) Ca2+, WT channels
From the text: To test whether calcium occupancy of the EF hand is responsible for CDM and CDD of human polycystin-2, we generated double alanine mutations at the −X ([…]) and −Z vertices (E774A) which abolished Ca^2+ affinity for the CTD fragment (FIG. 17B). We then expressed the −X-Z double mutation in PKD2-GFP in a PKD2^null HEK cell line, so that exogenous channels could be assayed without the contribution of endogenous PKD2 alleles, as previously described (Vien et al., 2020). The stably expressed human WT and −X-Z channels trafficked to the primary cilia, and glass electrodes with submicron apertures were fabricated to form high resistance electrical seals with the GFP-illuminated cilia membranes (FIG. 18A). […] These experiments were performed with only one channel present in the membrane, so that stochastic effects on single channel states could be determined. […]
Electrophysiology. The electrophysiologist was blinded by a third party in the laboratory, where test groups were assigned a letter to conceal the genetic identity of the cells being evaluated. […] Ciliary ion currents were recorded using borosilicate glass electrodes polished to resistances of 14-23 MΩ using the cilium patch method previously described (Vien et al., 2020). Single channel currents measured in the inside-out configuration were recorded in symmetrical sodium concentrations. […]

## [Ca+2] [Ca^2+, calcium]
  Shift in the voltage-dependence of half maximal open probability (V1/2): −47 mV
